“Also recorded” adds a separate entry of the source.
Columns and labels:
[1] = tested on: Aeromonas salmonicida; test: Stressed fish infected with Aeromonas salmonicida and immersed in soluble AS101; type: in vivo, goldfish (Carassius auratus); conditions: vs stressed infected fish not treated with AS101
Protocol: (§1) Fish were subjected to air exposure stress every 60 min for 90 sec during 4 hours (10). The fish were then divided into groups of 3, each separately held in 40 L plastic containers at 28°±2° C.

[2] = tested on: tilapia IL-10L; test: AS101 effect on intracellular IL-10L levels of tilapia PBL cell cultures (Western blot); type: cell-based, Tilapia hybrids (Oreochromis niloticus X O. aureus); conditions: 0.5 μg/ml AS101; dose-dependant; FIG. 1
Protocol: For in-vitro studies, AS101 was supplied as PBS solution, pH 7.4, at 4° C. For in-vivo experiments, AS101 powder was dissolved in the appropriate concentration in re-circulating water. PBL (peripheral blood leukocytes) were isolated from heparinized blood on a ficoll paque bed (Amersham Bioscience) and cultured as previously reported (9). For AS101 treatments, AS101 was added directly to the cultures at final concentration of 0.025 to 25 μg/ml, preferably 0.05 to 0.5 μg/ml. PBL were lysed as previously reported (6). Samples were electrophoresed on 12% SDS-PAGE and blotted with anti-human-IL-10 mAb (Santa Cruz Biotechnology, Inc sc-8438) (1:660 dilution) and HRP-conjugate secondary Ab (Jackson Immuno-Research) (1:6600 dilution).

[3] = tested on: IL-10L; test: Serum IL-10L levels in air-exposure stressed fish after AS101 bath immersion (ELISA); type: in vivo
Protocol: For in-vitro studies, AS101 was supplied as PBS solution, pH 7.4, at 4° C. For in-vivo experiments, AS101 powder was dissolved in the appropriate concentration in re-circulating water.
as §1
Fish blood was coagulated during 2 hours at room temperature, then centrifuged for 10 min at 1800×g. IL-10L levels were quantified in the collected sera using ELISA (Human Interleukin-10 ELISA Kit, pierce-endogen) according to manufacturer's instructions.

[4] = tested on: tilapia PBL (peripheral blood leukocytes); test: Cell toxicity in AS101-treated cell cultures (Blue staining); type: cell-based, Tilapia hybrids (Oreochromis niloticus X O. aureus); conditions: all AS101 doses, vs control
Protocol: PBL (peripheral blood leukocytes) were isolated from heparinized blood on a ficoll paque bed (Amersham Bioscience) and cultured as previously reported (9). For AS101 treatments, AS101 was added directly to the cultures at final concentration of 0.025 to 25 μg/ml, preferably 0.05 to 0.5 μg/ml.

For Cl[TeH]1(Cl)(Cl)OCCO1 [AS101, ammonium trichloro [dioxyethylene-O, O′] telurate], the rate of survival ([1]; FIG. 5) was “higher survival rates; also recorded: higher rate of survival”, the “number of wounds per fish” value ([1]; p=0.073, FIG. 4) was “significantly lower number of wounds per fish; also recorded: significantly less wounds” and the “inhibition of intracellular tilapia IL-10L synthesis” value [2] was “complete inhibition”. For the same compound, the “serum IL-10L level” value ([3]; 2 hours post-stress, bath immersion in 20-ppm water solution, maximal effect, decrease from 719 in stressed fish, FIG. 3) was 209 pg/mL, the “serum IL-10L change” value ([3]; 6 hours after stress induction and bath immersion in different AS101 concentrations, 20 μg/ml most efficient) was “significant IL-10L decrease” and the “cell death (cell toxicity)” value [4] was “did not show elevated cell death beyond control”.
